{
  "source": "paper PMC12700559",
  "about": "“Structural basis for simvastatin-induced skeletal muscle weakness associated with type 1 ryanodine receptor T4709M mutation” (The Journal of Clinical Investigation, 2025)",
  "key": {"[1]": {"target": "T1, type 1 ryanodine receptor (RyR1) (Mus musculus, UniProt E9PZQ0)", "T1 construct": "recombinant WT RyR1 on HEK293 ER microsomes (also endogenous RyR1 from mouse skeletal muscle)", "assay": "[3H]simvastatin radioligand binding; single-channel recordings show activation"}, "RyR1 BSM1 mutant": {"target": "T2, RyR1 BSM1 mutant (Mus musculus, UniProt E9PZQ0, W4792A)", "T2 construct": "recombinant RyR1 on HEK293 ER microsomes", "T2 sequence (E9PZQ0 whole entry W4792A)": "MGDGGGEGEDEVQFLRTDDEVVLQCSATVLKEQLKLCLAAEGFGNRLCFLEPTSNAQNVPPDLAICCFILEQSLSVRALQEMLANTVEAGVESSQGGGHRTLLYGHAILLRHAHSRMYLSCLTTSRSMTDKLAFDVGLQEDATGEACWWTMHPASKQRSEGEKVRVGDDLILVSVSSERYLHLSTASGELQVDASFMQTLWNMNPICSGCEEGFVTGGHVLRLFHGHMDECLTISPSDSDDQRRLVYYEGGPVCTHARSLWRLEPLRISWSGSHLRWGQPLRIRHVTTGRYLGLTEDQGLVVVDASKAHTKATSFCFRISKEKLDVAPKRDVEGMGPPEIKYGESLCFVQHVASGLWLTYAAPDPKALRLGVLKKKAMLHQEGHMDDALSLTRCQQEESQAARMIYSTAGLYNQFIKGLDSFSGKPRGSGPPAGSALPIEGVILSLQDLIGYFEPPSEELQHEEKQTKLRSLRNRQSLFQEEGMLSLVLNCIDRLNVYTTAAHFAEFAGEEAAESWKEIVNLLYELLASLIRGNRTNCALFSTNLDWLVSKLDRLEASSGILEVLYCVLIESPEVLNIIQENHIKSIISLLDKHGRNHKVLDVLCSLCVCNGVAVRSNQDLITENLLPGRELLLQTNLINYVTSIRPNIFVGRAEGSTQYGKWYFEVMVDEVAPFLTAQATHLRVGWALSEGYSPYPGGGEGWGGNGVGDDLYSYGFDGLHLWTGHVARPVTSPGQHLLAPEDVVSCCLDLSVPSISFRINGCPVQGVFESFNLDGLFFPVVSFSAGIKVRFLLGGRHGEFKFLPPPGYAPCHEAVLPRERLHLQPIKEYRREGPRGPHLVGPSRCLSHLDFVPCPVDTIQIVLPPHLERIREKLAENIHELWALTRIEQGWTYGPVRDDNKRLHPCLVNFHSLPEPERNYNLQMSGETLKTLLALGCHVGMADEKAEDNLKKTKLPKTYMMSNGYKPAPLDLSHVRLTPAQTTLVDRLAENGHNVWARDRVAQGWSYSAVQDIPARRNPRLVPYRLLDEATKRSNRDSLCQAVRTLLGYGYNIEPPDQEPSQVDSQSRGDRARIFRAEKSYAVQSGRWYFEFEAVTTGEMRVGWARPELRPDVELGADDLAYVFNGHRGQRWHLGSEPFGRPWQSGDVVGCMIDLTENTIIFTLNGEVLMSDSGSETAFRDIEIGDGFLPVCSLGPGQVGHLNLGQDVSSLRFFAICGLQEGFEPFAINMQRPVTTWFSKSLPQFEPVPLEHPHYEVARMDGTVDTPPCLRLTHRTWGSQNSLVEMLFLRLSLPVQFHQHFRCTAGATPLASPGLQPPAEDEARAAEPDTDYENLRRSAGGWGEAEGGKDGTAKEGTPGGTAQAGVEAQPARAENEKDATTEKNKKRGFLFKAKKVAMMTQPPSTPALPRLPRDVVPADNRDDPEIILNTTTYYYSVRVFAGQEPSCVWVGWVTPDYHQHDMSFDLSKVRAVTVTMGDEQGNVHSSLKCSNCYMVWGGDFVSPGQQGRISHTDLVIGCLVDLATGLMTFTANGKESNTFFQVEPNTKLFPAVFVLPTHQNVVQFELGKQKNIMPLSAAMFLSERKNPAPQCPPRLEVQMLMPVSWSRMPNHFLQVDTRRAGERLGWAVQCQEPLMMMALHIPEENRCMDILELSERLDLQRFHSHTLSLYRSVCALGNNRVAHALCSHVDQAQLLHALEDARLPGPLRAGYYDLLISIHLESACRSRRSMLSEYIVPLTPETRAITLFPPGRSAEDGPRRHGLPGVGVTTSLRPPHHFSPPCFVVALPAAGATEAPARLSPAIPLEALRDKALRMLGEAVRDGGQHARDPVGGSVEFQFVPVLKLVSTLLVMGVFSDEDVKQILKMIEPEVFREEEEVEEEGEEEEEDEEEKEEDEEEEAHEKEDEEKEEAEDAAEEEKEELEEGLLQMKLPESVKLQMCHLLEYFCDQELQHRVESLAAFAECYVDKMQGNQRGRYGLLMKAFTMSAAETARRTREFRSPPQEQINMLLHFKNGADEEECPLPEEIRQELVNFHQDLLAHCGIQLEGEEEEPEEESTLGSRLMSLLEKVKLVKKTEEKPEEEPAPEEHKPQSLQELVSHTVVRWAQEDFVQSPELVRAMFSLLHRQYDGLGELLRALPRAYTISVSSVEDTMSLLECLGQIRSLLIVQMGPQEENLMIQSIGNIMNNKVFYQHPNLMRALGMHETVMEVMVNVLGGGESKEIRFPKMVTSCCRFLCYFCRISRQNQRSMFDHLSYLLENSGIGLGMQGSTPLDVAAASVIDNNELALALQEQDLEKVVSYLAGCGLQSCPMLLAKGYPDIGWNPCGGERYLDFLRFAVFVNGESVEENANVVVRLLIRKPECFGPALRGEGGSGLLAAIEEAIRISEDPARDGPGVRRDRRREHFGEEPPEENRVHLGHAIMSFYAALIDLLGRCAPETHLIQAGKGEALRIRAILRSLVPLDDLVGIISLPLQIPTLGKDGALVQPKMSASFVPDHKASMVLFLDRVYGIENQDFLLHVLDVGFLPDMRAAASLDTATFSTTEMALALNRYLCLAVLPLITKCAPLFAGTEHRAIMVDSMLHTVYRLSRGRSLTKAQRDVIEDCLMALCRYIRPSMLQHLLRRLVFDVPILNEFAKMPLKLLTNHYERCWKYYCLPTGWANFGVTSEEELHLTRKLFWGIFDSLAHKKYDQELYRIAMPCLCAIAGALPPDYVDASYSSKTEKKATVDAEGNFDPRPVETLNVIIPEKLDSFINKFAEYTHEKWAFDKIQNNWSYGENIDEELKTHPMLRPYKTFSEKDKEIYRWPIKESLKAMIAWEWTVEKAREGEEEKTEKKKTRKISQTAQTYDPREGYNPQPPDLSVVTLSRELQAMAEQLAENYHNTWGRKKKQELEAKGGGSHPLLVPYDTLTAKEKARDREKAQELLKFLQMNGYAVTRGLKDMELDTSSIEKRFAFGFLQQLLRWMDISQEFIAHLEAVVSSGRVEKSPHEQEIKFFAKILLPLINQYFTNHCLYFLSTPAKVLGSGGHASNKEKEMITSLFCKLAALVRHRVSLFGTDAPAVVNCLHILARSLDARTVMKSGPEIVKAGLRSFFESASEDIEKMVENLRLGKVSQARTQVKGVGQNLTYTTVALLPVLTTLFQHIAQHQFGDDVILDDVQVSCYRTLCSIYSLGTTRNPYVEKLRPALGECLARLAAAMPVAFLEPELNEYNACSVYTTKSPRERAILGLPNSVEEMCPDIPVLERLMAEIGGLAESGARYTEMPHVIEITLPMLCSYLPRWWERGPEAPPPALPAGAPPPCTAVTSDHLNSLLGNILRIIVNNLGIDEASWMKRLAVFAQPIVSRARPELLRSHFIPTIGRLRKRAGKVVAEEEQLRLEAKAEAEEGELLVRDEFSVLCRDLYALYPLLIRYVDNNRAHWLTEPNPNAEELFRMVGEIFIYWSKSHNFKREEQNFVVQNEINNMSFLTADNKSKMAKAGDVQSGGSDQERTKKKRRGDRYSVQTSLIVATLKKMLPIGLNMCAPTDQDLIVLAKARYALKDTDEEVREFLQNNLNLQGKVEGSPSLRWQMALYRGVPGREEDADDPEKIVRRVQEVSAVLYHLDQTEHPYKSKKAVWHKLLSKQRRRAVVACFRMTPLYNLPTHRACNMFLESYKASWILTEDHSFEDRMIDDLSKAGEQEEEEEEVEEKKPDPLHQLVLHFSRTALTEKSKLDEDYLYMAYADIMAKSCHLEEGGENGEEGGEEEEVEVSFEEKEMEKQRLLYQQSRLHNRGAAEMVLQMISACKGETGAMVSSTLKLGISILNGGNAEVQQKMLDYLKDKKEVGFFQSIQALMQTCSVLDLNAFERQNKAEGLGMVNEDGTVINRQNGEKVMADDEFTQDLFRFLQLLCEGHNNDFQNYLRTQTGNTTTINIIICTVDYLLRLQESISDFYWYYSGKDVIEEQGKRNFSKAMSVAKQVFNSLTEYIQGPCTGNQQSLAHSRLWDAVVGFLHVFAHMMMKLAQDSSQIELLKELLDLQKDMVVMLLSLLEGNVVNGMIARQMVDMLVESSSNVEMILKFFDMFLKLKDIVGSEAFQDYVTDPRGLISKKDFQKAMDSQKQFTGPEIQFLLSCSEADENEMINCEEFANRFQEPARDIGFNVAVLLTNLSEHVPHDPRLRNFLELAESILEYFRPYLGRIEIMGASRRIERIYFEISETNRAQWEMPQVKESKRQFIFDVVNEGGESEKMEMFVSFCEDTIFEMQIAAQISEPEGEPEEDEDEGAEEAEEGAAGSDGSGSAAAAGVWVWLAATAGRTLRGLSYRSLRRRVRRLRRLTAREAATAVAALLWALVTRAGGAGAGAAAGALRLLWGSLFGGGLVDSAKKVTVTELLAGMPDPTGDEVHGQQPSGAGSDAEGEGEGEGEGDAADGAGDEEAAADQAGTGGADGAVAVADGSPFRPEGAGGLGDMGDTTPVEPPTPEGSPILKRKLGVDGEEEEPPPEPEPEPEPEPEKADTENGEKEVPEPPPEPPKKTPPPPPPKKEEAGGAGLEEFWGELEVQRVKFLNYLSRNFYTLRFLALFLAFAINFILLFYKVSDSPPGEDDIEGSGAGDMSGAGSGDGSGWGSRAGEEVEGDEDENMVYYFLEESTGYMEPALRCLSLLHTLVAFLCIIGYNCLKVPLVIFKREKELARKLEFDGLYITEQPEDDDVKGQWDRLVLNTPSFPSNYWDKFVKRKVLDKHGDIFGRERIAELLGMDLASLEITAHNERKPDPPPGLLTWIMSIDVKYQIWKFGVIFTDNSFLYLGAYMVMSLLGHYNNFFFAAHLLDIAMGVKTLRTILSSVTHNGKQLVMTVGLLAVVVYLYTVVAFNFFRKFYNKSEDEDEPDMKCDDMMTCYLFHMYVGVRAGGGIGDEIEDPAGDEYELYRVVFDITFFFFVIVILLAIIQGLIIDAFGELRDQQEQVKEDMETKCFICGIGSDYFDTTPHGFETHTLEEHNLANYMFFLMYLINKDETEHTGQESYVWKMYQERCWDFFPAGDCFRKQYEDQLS", "assay": "[3H]simvastatin radioligand binding"}},
  "data": [
    {"smiles": "CCC(C)(C)C(=O)O[C@H]1C[C@@H](C)C=C2C=C[C@H](C)[C@H](CC[C@@H](O)C[C@@H](O)CC(=O)O)[C@H]21", "note": "[simvastatin acid]", "values": [
      {"measurement": "Kd", "setting": "[1]", "result": 0.69, "unit": "µM"},
      {"measurement": "Kd", "setting": "RyR1 BSM1 mutant", "result": "~7.1", "unit": "µM"}
    ]}
  ]
}
